Data set [1] concerns A. baumannii 1646. Put plainly: murine model of lethal peritonitis. The data set is classed as in vivo, mice. The conditions noted are these: 2 mg kg^-1 intraperitoneal, one hour post challenge, 5 days. The method, then:
As a final assessment, we used a murine model of lethal A. baumannii infection to determine the efficacy of quinazolines in vivo. This was performed using frontrunner 5, which had the most promising properties from all of our biological testing. Accordingly, mice were inoculated with a lethal dose of A. baumannii via intraperitoneal injection on the right side of the abdomen. One hour post challenge, mice were treated with an intraperitoneal injection of 2 mg kg^−1 of frontrunner 5 on the left side of the abdomen. As a control, we also performed similar testing using 30 mg kg^−1 of tigecycline, which we already know our test strain to be susceptible to in vitro.
Characteristics of pre-moribund state include: hunched posture, rapid, shallow and/or labored breathing, ruffled fur, lethargy, failure to respond to stimuli, soiled anogenital area, paralysis, paresis, head tilt, circling, vocalizations, non-purposeful movements, and/or were unable to eat or drink. Those mice reaching this state prior to the completion of the 5-day infection period were euthanized. The number of mice surviving between control and treatment groups was compared and analyzed for statistical significance using a log-rank (Mantel-Cox) test.

The subject of a further data set is A. baumannii 1650. The data set is described as follows: minimal bactericidal concentration (MBC) assay, strain 1650. It counts as cell-based. The conditions noted are these: Acinetobacter baumannii, Table 8, read-out: MBC90 1650. From the text: (§1) Lead quinazolines 4, 5, 26, 29, 27, and 30 were selected to be further evaluated for antimicrobial effects. The first assay utilized was a minimal bactericidal concentration (MBC) assay, to assess whether leads compounds were bacteriostatic or bactericidal. The six lead agents were screened to identify their MBC90 towards each of the six A. baumannii isolates used in the SAR studies (Table 8), however for simplicity only the representative data for isolate 1646 is detailed below (Table 6). […] Further to this, we were able to obtain complete eradication of bacterial growth for these two compounds at 1 μM for 24 and 5 μM for 25.
(§2) MIC and MBC assays were performed in this study as documented by us previously.^17,23,24,25 The A. baumannii strains used are detailed in Table 7.

Data set [2] has as its system A. baumannii 1649 biofilm. Put plainly: biofilm eradication determination assay, strain 1649. The data set is classed as cell-based, Acinetobacter baumannii. The conditions noted are these: 90% biofilm eradication, Table 8. The method, then: (§3) These assays were performed as described by us previously,^26,24 as follows. Each of the A. baumannii strains were grown overnight in Mueller Hinton Broth (MHB). The next day these were used to seed fresh MHB to an OD600 of 0.5, with 150 μL then added to the wells of a 96 well plate and grown for 24 hours at 37° C. After 24 hours, the planktonic bacteria were carefully removed and fresh MHB was added with increasing concentrations of lead quinazolines. After incubation at 37° C. for 24 hours, planktonic cells were removed and biofilms were washed three times with phosphate buffered saline (PBS). Biofilms were then resuspended in PBS and plated for cell viability on tryptic soy agar. Biofilm recovery was assessed compared to no drug controls, and determined as percent eradication. This was used to determine MBEC90 values (Minimal Biofilm Eradication Concentration), where the viability of cells within the biofilm was reduced by 90%.

The subject of another data set is A. baumannii 1651. Put plainly: MIC assay, strain 1651. As to conditions: strain 1651. It counts as cell-based, Acinetobacter baumannii. Here is the method:
as §2

The test system of the next data set is A. baumannii strain 1403. The data set is classed as cell-based, Acinetobacter baumannii. As to conditions: serial passage, 8 days, start 0.5× MIC. Here is the method: An important attribute of novel antibiotics is the ability to fend off the development of resistance towards their effects. To assess this capacity, A. baumannii strains were incubated overnight with 0.5× MIC of each of the frontrunners. The next day cells were washed and used to inoculate fresh media that contained a two-fold increase in drug. This was repeated for a total of 8 days, alongside sulfamethoxazole (SMX) and trimethoprim (TMP) controls, both of which target the same pathway as our lead agents (FIG. 2).
In order to test potential resistance towards the quinazolines, a serial passage assay was performed alongside control compounds (Sulfamethoxazole and Trimethoprim), as described by us previously.^24 A. baumannii strain 1403 was grown overnight in LB media at 37° C. The next day cultures were diluted 1:100 in fresh media and seeded into a 96-well plate. Lead quinazolines or control agents were added to respective wells at half MIC concentrations. […] These were then grown overnight, and the procedure repeated for a total of eight days.

In a further data set the test system is A. baumannii 1403. The data set is described as follows: MIC assay, strain 1403. It counts as cell-based, Acinetobacter baumannii. As to conditions: strain 1403; for MIC: Acinetobacter baumannii. Here is the method: as §2
Data set [3] concerns A. baumannii 1646. The data set is described as follows: MIC assay, strain 1646. It counts as cell-based, Acinetobacter baumannii. Here is the method: as §2
A further data set concerns human HepG2 cells. The data set is classed as cell-based. The method, then: Cytotoxicity assays were performed using human HepG2 cells (human liver epithelial with hepatocellular carcinoma), as described by us previously.^17,24 Cells were cultured in Dulbecco's modified eagle medium (DMEM), supplemented with 10% fetal bovine serum and 1% penicillin-streptomycin for 3 days at 37° C. and 5% CO2. Cells were then diluted to 1×10^5 ml^−1 using fresh DMEM and added to 96 well tissue culture plates at a volume of 100 μL. Plates were incubated for 24 hours at 37° C. and 5% CO2, allowing the cells to adhere to the plastic. […] Plates were then incubated for 48 hours at 37° C. and 5% CO2. After 48 hours the DMEM was removed and 100 μL of new media was added containing MTT (3-(4, 5-dimethylthiazol-2-yl)-2, 5-diphenyltetrazolium bromide), followed by incubation for four hours at 37° C. and 5% CO2. […] Lead compounds were solvated in 100% DMSO for these studies, which served as the negative control. LD50 values were determined for each compound by comparison to vehicle only controls.

The test system of data set [4] is A. baumannii 1649. Put plainly: MIC assay, strain 1649. The conditions noted are these: strain 1649. The data set is classed as cell-based, Acinetobacter baumannii. The method, then:
as §2

In data set [5] the test system is A. baumannii 1651 biofilm. The data set is described as follows: biofilm eradication determination assay, strain 1651. The data set is classed as cell-based, Acinetobacter baumannii. The conditions noted are these: 90% biofilm eradication, Table 8. Here is the method: as §3
The test system of a further data set is A. baumannii 1652. Put plainly: minimal bactericidal concentration (MBC) assay, strain 1652. The data set is classed as cell-based. The conditions noted are these: Acinetobacter baumannii, Table 8, read-out: MBC90 1652.
Source text: as §1, §2

Data set [6] deals with A. baumannii 1649. The data set is described as follows: minimal bactericidal concentration (MBC) assay, strain 1649. The data set is classed as cell-based. As to conditions: Acinetobacter baumannii, Table 8, read-out: MBC90 1649.
Source text: as §1, §2

The source of these data is patent publication US10323007B1, “N2N N4-disubstituted quinazoline-2,4-diamines and uses thereof” (University of South Florida, priority 2016, dated 2019).

Each structure is given as a SMILES string. ≈ marks a conversion by molar mass, not a printed value. Where two headings read alike, the source gives them in different places.

For the compound `CNc1nc(NCc2ccccc2)nc2ccc(C)cc12` [Compound 5, N^2-Benzyl-N^4,6-dimethylquinazoline-2,4-diamine], in the data set with A. baumannii 1646 [1], the “survival rate of infected animals” value is reported as 83%. The figures for the MBC with A. baumannii 1650, in the data set on A. baumannii 1652 and in the data set with A. baumannii 1649 [6] were 27 µM (≈ 7.52 µg/mL), 12 µM (≈ 3.34 µg/mL) and 9.3 µM (≈ 2.59 µg/mL), respectively. Moreover, the “MBEC90 1649” value in data set [2] amounted to 34 µM. Further, the MIC came out at 10 µM (≈ 2.78 µg/mL) with A. baumannii 1651 (Acinetobacter baumannii, Table 2, read-out: 1651 MIC); 1 µM (≈ 0.278 µg/mL) in the data set on A. baumannii 1651 (Acinetobacter baumannii, lead quinazolines, Table 8, read-out: MIC 1651); 10 µM (≈ 2.78 µg/mL) in the data set with A. baumannii 1651 (Tables 1, 3, 4, 5 and footnotes, read-out: 1651 MIC); 10 µM (≈ 2.78 µg/mL) in the data set with A. baumannii 1403 (Tables 1, 3, 4, 5 and footnotes, read-out: 1403 MIC); 10 µM (≈ 2.78 µg/mL) in the data set on A. baumannii 1403 (lead quinazolines, Table 8, read-out: MIC 1403); 1 µM (≈ 0.278 µg/mL) with A. baumannii 1646 [3] (Acinetobacter baumannii, Table 6, representative data for isolate 1646, read-out: MIC). For the same compound, the MIC in the data set on A. baumannii 1646 [3] (Acinetobacter baumannii, strain 1646, Table 2, read-out: 1646 MIC) came to 2 µM (≈ 0.557 µg/mL); in the data set on A. baumannii 1646 [3] (Acinetobacter baumannii, strain 1646, lead quinazolines, Table 8, read-out: MIC 1646), 1 µM (≈ 0.278 µg/mL); in the data set on A. baumannii 1646 [3] (strain 1646, Tables 1, 3, 4, 5 and footnotes, read-out: 1646 MIC) it was 2 µM (≈ 0.557 µg/mL); in the data set with A. baumannii 1649 [4] (Acinetobacter baumannii, Table 2, read-out: 1649 MIC), 25 µM (≈ 6.96 µg/mL); with A. baumannii 1649 [4] (Acinetobacter baumannii, lead quinazolines, Table 8, read-out: MIC 1649) it was 21 µM (≈ 5.85 µg/mL); in the data set on A. baumannii 1649 [4] (Tables 1, 3, 4, 5 and footnotes, read-out: 1649 MIC), 25 µM (≈ 6.96 µg/mL). Besides, the “increase in MIC over the 8-day test period” value with A. baumannii strain 1403 is reported as 4 fold. Also, in the data set on A. baumannii 1403 (Table 2), the “1403 MIC” value stood at 10 μm. For the same compound, the HepG2 cell viability in the data set on human HepG2 cells (at 25 μM (highest concentration tested)) is on record as 44%. Moreover, the “LD50(HepG2)” value in the data set on human HepG2 cells (human, 48 h) worked out at 22 µM. Moreover, in data set [5], the “MBEC90 1651” value was 11 µM.

One may read the MIC as the least concentration at which growth counts as inhibited.
